Test systems include NCI-H522; MOLT-4; T47D; NCI-H23; KM12; MDA-MB-435; 786-0; COLO 205; SF-295; A549; SK-MEL-28; HCT-15; HCT-116; HT-29; NCI-H460; LOX IMVI; OVCAR-8; SF-268; BT-549; MDA-N.
Holding throughout (experiment): growth of human tumour cells (NCI), 48 h

Molecules are shown by their SMILES.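 Following 48 hours of exposure in 96-well plates, responses at five concentrations were used to interpolate endpoints linearly. Here, GI50 denotes the concentration required for 50% inhibition of growth.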 The source made the active and inactive calls. No stated cut-off is given here; in the data, active = GI50 up to about 1.1 µM and inactive = higher.

The text below walks through data of ChEMBL document CHEMBL1201862, “PubChem BioAssay data set” (2004).

For `COc1ccc(-n2c(-c3ccccc3)cc(-c3cccs3)c2-c2cccs2)cc1`, the GI50 with NCI-H522 is > 100 µM (inactive); in the experiment on MOLT-4, > 100 µM (inactive); with T47D it was 26.5 µM (inactive); in the experiment on NCI-H23, 6.73 µM (inactive); in the experiment on KM12, > 100 µM (inactive); with MDA-MB-435, > 100 µM (inactive). Also, the GI50 with 786-0 was > 100 µM (inactive); with COLO 205, > 100 µM (inactive); in the experiment on SF-295, > 100 µM (inactive); in the experiment with A549 it was 39.4 µM (inactive); in the experiment with SK-MEL-28, > 100 µM (inactive); with HCT-15, over 100 µM. In addition, the GI50 in the experiment on HCT-116, in the experiment with HT-29, in the experiment on NCI-H460, in the experiment on LOX IMVI, with OVCAR-8 and in the experiment on SF-268 was > 100 µM (inactive) throughout.
Regarding `N#CC1C(=O)NC(=O)C(C#N)C1c1ccc(Cl)c(Cl)c1` (stereo not drawn), the GI50 was 15.7 µM (inactive) in the experiment with NCI-H522; 26.9 µM (inactive) in the experiment with MOLT-4; 33.3 µM (inactive) in the experiment with T47D; 21.4 µM (inactive) in the experiment with NCI-H23; 33.7 µM (inactive) in the experiment with KM12; 22.7 µM (inactive) in the experiment on MDA-MB-435. Also, the GI50 with 786-0 was 20.1 µM (inactive); in the experiment on BT-549, 33.3 µM (inactive); in the experiment with COLO 205 it was > 100 µM (inactive); in the experiment on SF-295, 40.3 µM (inactive); in the experiment with A549 it was 49.3 µM (inactive); with SK-MEL-28, 30.6 µM (inactive). In addition, the GI50 in the experiment on HCT-15 was 21.5 µM; in the experiment on HCT-116, 13.9 µM (inactive); in the experiment on HT-29 it was 16.7 µM (inactive); in the experiment with NCI-H460, 30.1 µM (inactive); in the experiment with LOX IMVI, 17.1 µM (inactive); in the experiment on OVCAR-8, 37.4 µM (inactive). For the same compound, the GI50 with SF-268 is 34.8 µM (inactive).
On to `S=C1/C(=N/c2ccccc2)N(C2CCCCC2)/C(=N\C2CCCCC2)N1c1ccccc1`, for which the GI50 in the experiment on NCI-H522 is 6.73 µM (inactive); in the experiment on MOLT-4 it was > 100 µM (inactive); with T47D it was 82.6 µM (inactive); in the experiment with NCI-H23, > 100 µM (inactive); with KM12 it was 42.7 µM (inactive); in the experiment with MDA-MB-435, > 100 µM (inactive). Moreover, the GI50 in the experiment on 786-0 is 75.7 µM (inactive); in the experiment with COLO 205, 47.6 µM (inactive); with SF-295 it was 36 µM (inactive); in the experiment on A549, 60 µM (inactive); in the experiment on SK-MEL-28, > 100 µM (inactive); in the experiment on HCT-15, over 100 µM. The GI50 was 68.9 µM (inactive) with HCT-116; 78.5 µM (inactive) with HT-29; 38 µM (inactive) with NCI-H460; > 100 µM (inactive) with LOX IMVI; > 100 µM (inactive) in the experiment with OVCAR-8; > 100 µM (inactive) in the experiment on SF-268. The GI50 in the experiment on MDA-N was > 100 µM (inactive).
`COc1cc(/C=C\C(=O)O)ccc1OCc1ccccc1`: the GI50 is > 100 µM (inactive) in the experiment with NCI-H522; > 100 µM (inactive) with MOLT-4; > 100 µM (inactive) in the experiment on T47D; > 100 µM (inactive) with NCI-H23; 0.217 µM (active) with KM12; > 100 µM (inactive) in the experiment with MDA-MB-435. The GI50 was > 100 µM (inactive) in the experiment on 786-0; > 100 µM (inactive) in the experiment on COLO 205; > 100 µM (inactive) with SF-295; > 100 µM (inactive) in the experiment with A549; > 100 µM (inactive) in the experiment with SK-MEL-28; over 100 µM in the experiment with HCT-15. Moreover, the GI50 with HCT-116, in the experiment on NCI-H460, in the experiment with LOX IMVI, with OVCAR-8, in the experiment with SF-268 and with MDA-N was > 100 µM (inactive) each time.
Consider `OC(C/C=N/N=C/CC(O)(C(F)(F)Cl)C(F)(F)Cl)(C(F)(F)Cl)C(F)(F)Cl`, for which the GI50 in the experiment with NCI-H522, in the experiment with MOLT-4, in the experiment on T47D, in the experiment on NCI-H23, in the experiment on KM12 and in the experiment on MDA-MB-435 was > 10 µM (inactive) throughout. The GI50 in the experiment on 786-0 was > 10 µM (inactive); with COLO 205 it was > 10 µM (inactive); in the experiment with SF-295, > 10 µM (inactive); in the experiment on A549 it was > 10 µM (inactive); with SK-MEL-28 it was > 10 µM (inactive); in the experiment with HCT-15 it was over 10 µM. Further, the GI50 in the experiment with HCT-116, in the experiment with HT-29, in the experiment with NCI-H460, in the experiment with LOX IMVI, in the experiment on OVCAR-8 and in the experiment with SF-268 was > 10 µM (inactive) in each case. In the experiment with MDA-N, the GI50 was > 10 µM (inactive).
With `O=C1CCC2(c3ccc(Cl)cc3)Nc3ncncc3N12` (stereo not drawn), the GI50 in the experiment with NCI-H522, in the experiment with MOLT-4, with NCI-H23, with KM12, in the experiment with MDA-MB-435 and in the experiment with 786-0 was > 10 µM (inactive) in each case. In addition, the GI50 was > 10 µM (inactive) in the experiment with BT-549; > 10 µM (inactive) in the experiment with SF-295; > 10 µM (inactive) in the experiment on A549; over 10 µM in the experiment on HCT-15; > 10 µM (inactive) with HT-29; > 10 µM (inactive) with NCI-H460. The GI50 with LOX IMVI, with OVCAR-8, with SF-268 and in the experiment on MDA-N was > 10 µM (inactive) each time.
`COC(=O)C1=C(C(=O)OC)SC2(S1)C(C(=O)OC)=C(C(=O)OC)Sc1c2ss/c1=N/C(C)(C)C`: the GI50 is 0.555 µM (active) with NCI-H522; 0.417 µM (active) in the experiment on MOLT-4; 1.41 µM (inactive) in the experiment with T47D; 2.23 µM (inactive) in the experiment with NCI-H23; 1.57 µM (inactive) in the experiment with KM12; 1.55 µM (inactive) in the experiment on MDA-MB-435. Also, the GI50 with 786-0 was 1.31 µM (inactive); in the experiment on BT-549 it was 2.07 µM (inactive); in the experiment with COLO 205, 1.45 µM (inactive); in the experiment on SF-295 it was 14.1 µM (inactive); with A549, 2.43 µM (inactive); with SK-MEL-28, 2.07 µM (inactive). Also, the GI50 in the experiment with HCT-15 is 0.622 µM; in the experiment with HCT-116, 0.769 µM (active); in the experiment with HT-29, 1.17 µM (inactive); in the experiment on NCI-H460, 0.533 µM (active); with LOX IMVI, 1.04 µM (active); in the experiment on OVCAR-8, 1.71 µM (inactive). For the same compound, the GI50 in the experiment with SF-268 is 1.86 µM (inactive).
Regarding `C=C1c2nc3ccccc3n2C=C(c2ccc(OC)cc2)N1c1ccc(OC)cc1`, the GI50 in the experiment on NCI-H522 is 10.7 µM (inactive); in the experiment with MOLT-4 it was > 100 µM (inactive); in the experiment on NCI-H23, 21.1 µM (inactive); in the experiment on KM12, 14.6 µM (inactive); with MDA-MB-435, 12.1 µM (inactive); in the experiment on 786-0 it was 5.4 µM (inactive). Besides, the GI50 is 22.1 µM (inactive) in the experiment on BT-549; 83.4 µM (inactive) with COLO 205; 11.7 µM (inactive) in the experiment on SF-295; 21.3 µM (inactive) in the experiment with A549; 25.5 µM with HCT-15; 17.4 µM (inactive) in the experiment with HCT-116. In addition, the GI50 in the experiment with NCI-H460 is 13.8 µM (inactive); in the experiment on LOX IMVI it was 46.6 µM (inactive); with OVCAR-8, 7.24 µM (inactive); with MDA-N it was 22.1 µM (inactive).
As to `Cc1nc(OCc2ccccc2)c2ncn(CCO)c2n1`, the GI50 with NCI-H522, in the experiment with MOLT-4, in the experiment on NCI-H23, in the experiment with KM12, in the experiment on MDA-MB-435 and in the experiment with 786-0 was > 100 µM (inactive) each time. Moreover, the GI50 in the experiment on BT-549, in the experiment on COLO 205, in the experiment on SF-295, in the experiment on A549, in the experiment on SK-MEL-28 and in the experiment with HCT-116 was > 100 µM (inactive) each time. Also, the GI50 in the experiment with HT-29, in the experiment on NCI-H460, with LOX IMVI, with SF-268 and in the experiment with MDA-N was > 100 µM (inactive) throughout.
Turning to `CC(=O)OC1CC2C(=O)CC1(C)C2(C)C` (stereo not drawn), the GI50 in the experiment with NCI-H522, in the experiment with MOLT-4, in the experiment with T47D, in the experiment on NCI-H23, with KM12 and in the experiment on MDA-MB-435 was > 100 µM (inactive) in each case. For the same compound, the GI50 in the experiment with 786-0 was > 100 µM (inactive); in the experiment on COLO 205, > 100 µM (inactive); with SF-295 it was > 100 µM (inactive); in the experiment on A549, > 100 µM (inactive); in the experiment on SK-MEL-28 it was > 100 µM (inactive); with HCT-15, over 100 µM. The GI50 in the experiment on HCT-116, in the experiment with HT-29, in the experiment on NCI-H460, in the experiment with LOX IMVI, in the experiment with OVCAR-8 and in the experiment with SF-268 was > 100 µM (inactive) each time. Further, the GI50 in the experiment on MDA-N is > 100 µM (inactive).
Take `CSCC[C@H]1C(=O)N=C(N)N1C(=O)OCc1ccccc1`: the GI50 is 19.7 µM (inactive) with NCI-H522; 18.7 µM (inactive) with MOLT-4; 17.1 µM (inactive) in the experiment on NCI-H23; 42.9 µM (inactive) in the experiment on KM12; 34 µM (inactive) in the experiment on MDA-MB-435; 26.2 µM (inactive) in the experiment with 786-0. For the same compound, the GI50 was 19.8 µM (inactive) in the experiment on BT-549; 18.7 µM (inactive) in the experiment on COLO 205; 61.7 µM (inactive) with SF-295; 24.2 µM (inactive) in the experiment on SK-MEL-28; 28.6 µM with HCT-15; 17.6 µM (inactive) in the experiment on HCT-116. For the same compound, the GI50 with HT-29 is 38.3 µM (inactive); with NCI-H460 it was 41 µM (inactive); in the experiment with LOX IMVI it was 24.5 µM (inactive); in the experiment on OVCAR-8, 29 µM (inactive); in the experiment with SF-268 it was 38.4 µM (inactive); in the experiment with MDA-N it was 28.9 µM (inactive).
